pEC50, pKd: −log10 of the molar value. Values joined by “and” are separate entries in the source; they are usually repeats but may differ in a detail not shown here. Identical values can stand only once.
What was measured:
[1] = molecular target: T1, β1-AR (Homo sapiens, UniProt P08588); assay: 3H-CGP12177 whole-cell binding in CHO-β1-CRE-SPAP cells
Description: (§6) Briefly, cells were grown to confluence in tissue-culture-treated white-sided 96-well view plates. […] A white bottom was applied to convert the wells to white-bottomed, white-sided wells, 100 μL Microscint 20 was then added to each well, and a clear sealant top was applied. The plates left for at least 8 hours in the dark before being counted on a Topcount for 2 minutes per well.

[2] = molecular target: T2, human β2-AR (Homo sapiens, UniProt P07550); assay: 3H-CGP12177 whole-cell binding in CHO-β2-CRE-SPAP cells; details: for β2-Selectivity: β2 over β1 affinity from whole-cell binding
T2 sequence (P07550 whole entry): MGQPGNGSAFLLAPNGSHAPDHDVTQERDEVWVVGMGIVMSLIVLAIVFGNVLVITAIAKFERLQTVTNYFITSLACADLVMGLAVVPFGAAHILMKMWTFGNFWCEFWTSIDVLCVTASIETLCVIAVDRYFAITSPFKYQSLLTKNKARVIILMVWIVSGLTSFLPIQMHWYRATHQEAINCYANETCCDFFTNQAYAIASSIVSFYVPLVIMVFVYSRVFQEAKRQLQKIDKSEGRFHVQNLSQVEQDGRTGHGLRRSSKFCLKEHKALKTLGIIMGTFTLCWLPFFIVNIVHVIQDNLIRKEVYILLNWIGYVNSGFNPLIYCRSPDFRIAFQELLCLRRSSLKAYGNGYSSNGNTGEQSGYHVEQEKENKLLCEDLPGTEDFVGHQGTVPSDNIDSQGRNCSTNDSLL
Description: as §6

[3] = molecular target: T1, β1-AR; assay: CRE-luciferase production in CHO-β1-CRE-luciferase cells; details: for % isop: response compared to 10 μM isoprenaline; for Log EC50: agonist action; for Log ratio of affinities: catecholamine vs secondary conformation; for Log KD Secondary Conformation, CGP12177 as agonist: rightward shift of CGP12177 response; for Log KD Secondary Conformation, CGP12177 as agonist / Log KD Catecholamine conformation Cimaterol as Agonist: Gaddum, or Stephenson for partial agonists (a); for Log KD Catecholamine conformation Cimaterol as Agonist: rightward shift of cimaterol response
[4] = molecular target: T2, human β2-AR; assay: CRE-SPAP production in CHO-β2-CRE-SPAP cells; assay type: cell-based; parameters: expressed in transfected cells; host or cells: CHO-K1 clonal line (CHO-β2-CRE-SPAP); details: for pEC50 / Log EC50: agonist action; for % Isoprenaline: response compared with 10 μM isoprenaline; for Log ratio of affinities: cimaterol vs CGP12177 as agonist
Description: (§1) Many agonist responses were best described by a one-site sigmoidal agonist concentration-response curve.
(§2) In experiments where 3 different fixed concentrations of the same antagonist were used, Schild plots were constructed using equation (6):(6) logDR-1=logB-logKD
(§3) These points were then fitted to a straight line. A slope of 1 then indicates competitive antagonism.[39]
(§4) Where clear partial agonism was present (eg, Fig. 3D), the partial agonist affinity was calculated by the method of Stephenson[40] using equation 7.
(§5) (7) KDpartialagonist=Y×P/1-YwhereY=A2-A1/A3 where [P] is the concentration of the partial agonist, [A1] is the concentration of the agonist at the point where the fixed partial agonist causes the same response, [A2] is the concentration of agonist causing a given response above that achieved by the partial agonist, and [A3] is the concentration of the agonist, in the presence of the partial agonist, causing the same stimulation as [A2].

[5] = molecular target: T1, β1-AR; assay: Summary of pharmacological outcome at the β1-AR (CHO-β1-luciferase or CHO-β1-SPAP cells); details: for Pharmacological Outcome: CCE/IBS conformation / Pharmacological Outcome: SCE conformation: β1-AR, summary; for Evidence of SCE activation: evidence A–D as outlined in the Introduction, CHO-β1-luciferase or CHO-β1-SPAP cells
Description: Briefly, at 24 hours, the media was removed and 100 μL sfm added to each well (to serum starve the cells) for a second 24 hours before experimentation.

[6] = molecular target: T1, β1-AR; assay: CRE-SPAP production in CHO-β1-CRE-SPAP cells; assay type: cell-based; parameters: expressed in transfected cells; host or cells: CHO-K1 clonal lines (CHO-β1-CRE-luc, CHO-β1-CRE-SPAP); details: for EC50 / Log EC50: agonist action; for EC50: read-out: Log EC50 (converted); for % Isoprenaline: response compared with 10 μM isoprenaline
Description: as §1, §2, §3, §4, §5
where N is the percentage of site 1, [A] is the concentration of agonist, and EC1_50 and EC2_50 are the respective EC50 values for the 2 agonist sites.

[7] = system: CHO-CRE-SPAP cells; details: no transfected receptor, as previously reported; cited from earlier work
[8] = CHO-β1-CRE-luciferase cells, given as log EC50 (negative)
[9] = Log KD (CGP12177 as Agonist), rightward shift of CGP12177 response
[10] = Log KD (Cimaterol as Agonist), rightward shift of cimaterol response, Gaddum, or Stephenson (a)
[11] = Log EC50, agonist action, CHO-β1-CRE-luciferase cells, given as log EC50 (negative)
[12] = rightward shift of CGP12177 response
[13] = rightward shift of CGP12177 response, CHO-β1-CRE-SPAP cells
[14] = rightward shift of cimaterol response, CHO-β1-CRE-SPAP cells, Gaddum, or Stephenson (a)

T1 sequence (P08588 whole entry): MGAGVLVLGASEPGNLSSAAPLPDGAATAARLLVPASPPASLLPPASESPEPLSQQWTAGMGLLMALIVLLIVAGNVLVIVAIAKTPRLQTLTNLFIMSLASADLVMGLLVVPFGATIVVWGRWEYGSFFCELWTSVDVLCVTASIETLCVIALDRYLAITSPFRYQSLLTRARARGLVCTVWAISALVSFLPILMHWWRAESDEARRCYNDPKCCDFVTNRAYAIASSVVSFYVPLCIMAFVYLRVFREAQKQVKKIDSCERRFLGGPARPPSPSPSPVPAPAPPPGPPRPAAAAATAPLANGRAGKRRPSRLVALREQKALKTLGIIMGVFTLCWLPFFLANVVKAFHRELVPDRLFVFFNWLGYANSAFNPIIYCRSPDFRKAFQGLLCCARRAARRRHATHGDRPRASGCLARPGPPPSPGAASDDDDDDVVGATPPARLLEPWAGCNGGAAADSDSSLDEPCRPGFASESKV

Row | Compound | pKd [1] | pKd [2] | β2-Selectivity [2] [fold] | % isop ([3]; CHO-β1-CRE-luciferase cells) | pEC50 [4] | % Isoprenaline [4] [%] | Pharmacological Outcome: CCE/IBS conformation [5] | Pharmacological Outcome: SCE conformation [5] | EC50 ([6]; CHO-β1-CRE-SPAP cells) [nM] | % Isoprenaline ([6]; CHO-β1-CRE-SPAP cells) | CRE-SPAP response [7] | Log EC50 [3, 8] | pKd [4, 9] | pKd [4, 10] | Log EC50 [4] | Evidence of SCE activation [5] | Log EC50 ([6]; CHO-β1-CRE-SPAP cells) | pEC50 [3, 11] | Log ratio of affinities ([3]; CHO-β1-CRE-luciferase cells) | Log KD Secondary Conformation, CGP12177 as agonist ([3]; CHO-β1-CRE-luciferase cells) | also measured
1 | CC(C)(Cc1c[nH]c2ccccc12)NCC(O)COc1ccccc1C#N (centres unmarked) [Bucindolol, 2-[2-hydroxy-3-[[2-(1H -indol-3-yl)-1,1-dimethyl-ethyl]amino]propoxy]benzonitrile, reference compound] | 9.24 | 10.29 | 11.2 | 23.7 ± 1.7% | 9.70 | 70.3 ± 2.0 | Agonist (biphasic) | Agonist (biphasic) | 0.759 | 84.5 ± 2.4% | – | – | – | – | – | – | – | – | – | – | % at EC501 ([3]; % of the response occurring via first component, CHO-β1-CRE-luciferase cells): 23.3 ± 2.4%; pEC50 ([3]; EC501 (log EC50 of first component), biphasic concentration response, CHO-β1-CRE-luciferase cells): 9.27; pEC50 ([3]; EC502 (log EC50 of second component), biphasic concentration response, CHO-β1-CRE-luciferase cells): 7.24
2 | CC(C)(C)NCC(O)COc1cccc2[nH]c(=O)[nH]c12 (centres unmarked) [CGP12177, 4-[3-(tert-butylamino)-2-hydroxypropoxy]-1,3-dihydrobenzimidazol-2-one] | – | – | – | – | – | – | – | – | – | – | no responses | – | – | – | – | – | – | – | – | – | –
3 | Cn1cc(C(F)(F)F)nc1-c1ccc(OCC(O)CNCCOc2ccc(O)c(C(N)=O)c2)cc1 (centres unmarked) [CGP20712A] | – | – | – | – | – | – | – | – | – | – | no responses | – | – | – | – | – | – | – | – | – | –
4 | CC(C)NCC(O)c1ccc(N)c(C#N)c1 (centres unmarked) [Cimaterol, 2-amino-5-[1-hydroxy-2-(propan-2-ylamino)ethyl]benzonitrile] | – | – | – | – | – | – | – | – | – | – | no responses | – | – | – | – | – | – | – | – | – | –
5 | CC(C)(C)NC[C@H](O)COc1cccc2c1CCCC2=O [VL03, 5-[(2S)-3-(tert-butylamino)-2-hydroxypropoxy]-3,4-dihydro-2H -naphthalen-1-one] | 8.29 | – | – | – | – | – | High-affinity neutral antagonist | Low-affinity neutral antagonist | – | – | – | No response | 10.12 | 10.33 | No response | None | No response | – | – | – | Schild slope ([4]; CGP12177 as agonist): 1.00 ± 0.03; Schild slope ([4]; cimaterol as agonist): 0.99 ± 0.04; pKd ([6]; Log KD Catecholamine conformation Cimaterol as Agonist, rightward shift of cimaterol response, CHO-β1-CRE-SPAP cells, Gaddum, or Stephenson (a)): 8.75; pKd ([6]; Log KD Secondary Conformation CGP12177 as Agonist, rightward shift of CGP12177 response, CHO-β1-CRE-SPAP cells): 6.25; Schild slope ([6]; cimaterol as agonist, CHO-β1-CRE-SPAP cells): 0.96 ± 0.05
6 | COc1ccccc1OC[C@@H](O)CNC(C)C [VL05, (2S)-1-(2-methoxyphenoxy)-3-(propan-2-ylamino)propan-2-ol] | 7.62 | 7.91 | 1.9 | 9.7 ± 0.8% | 8.42 | 63.2 ± 3.2 | Agonist | – | 5.01 | 62.3 ± 3.8% | – | – | – | – | – | None | – | 7.19 | >3 | No shift 10 μM | pKd [3]: 8.00
7 | COc1ccc(OCC(O)CNCCc2c[nH]c3ccccc23)cc1 (centres unmarked) [VL06, 1-[2-(1H -indol-3-yl)ethylamino]-3-(4-methoxyphenoxy)propan-2-ol] | 5.95 | 6.01 | 1.1 | 2.7 ± 0.8% | 6.44 | 15.2 ± 1.2 | Agonist | – | 339 | 53.6 ± 3.1% | – | – | 5.93 | 6.34 | – | None | – | 5.85 | >1.46 | No shift 10 μM | pKd [3]: 6.46; Log ratio of affinities [4]: 0.41
8 | O[C@H](CNCCc1c[nH]c2ccccc12)COc1ccc(F)cc1 [VL10, (2R)-1-(4-fluorophenoxy)-3-[2-(1H -indol-3-yl)ethylamino]propan-2-ol] | 6.73 | 7.05 | 2.1 | 14% and 13.8 ± 1.5% | 7.40 | 28.7 ± 2.0 | Agonist | – | 18.6 | 67% and 66.9 ± 2.5% | – | – | 6.86 | 7.43 | – | None | – | 6.81 | 1.64 | – | Log ratio of affinities [4]: 0.57; pKd [6]: 6.93
9 | C=CCc1ccccc1OCCNCCCOC [VL12, 3-methoxy-N -[2-(2-prop-2-enylphenoxy)ethyl]propan-1-amine] | – | 5.17 | – | – | – | – | No receptor interaction | No receptor interaction | – | – | – | No response | – | 5.43 | No response | None | No response | – | – | No shift 10 μM | Log KD Catecholamine conformation Cimaterol as Agonist ([3]; CHO-β1-CRE-luciferase cells): No shift at 10 μM; Log KD (CGP12177 as Agonist) [4, 12]: No shift 10 μM; Log KD Secondary Conformation, CGP12177 as agonist [6, 13]: No shift 10 μM; Log KD Catecholamine conformation Cimaterol as Agonist [6, 14]: No shift 10 μM
10 | Cc1ccc(OCC(O)CNC(C)C)cc1 (centres unmarked) [VL13, 1-(4-methylphenoxy)-3-(propan-2-ylamino)propan-2-ol] | – | – | – | – | – | – | No receptor interaction | No receptor interaction | – | – | – | No response | – | – | No response | None | No response | – | – | No shift 10 μM | Log KD β1 ([1]; competition with 3H-CGP12177, CHO-β1-CRE-SPAP cells, mean ± s.e.mean, given as log KD (negative)): No binding to 100 μM; Log KD β2 ([2]; competition with 3H-CGP12177, CHO-β2-CRE-SPAP cells, mean ± s.e.mean, given as log KD (negative)): No binding to 100 μM; Log KD Catecholamine conformation Cimaterol as Agonist ([3]; CHO-β1-CRE-luciferase cells): No shift at 10 μM; Log KD (CGP12177 as Agonist) [4, 12]: No shift 10 μM; Log KD (Cimaterol as Agonist) ([4]; rightward shift of cimaterol response, Gaddum, or Stephenson (a)): No shift 10 μM; Log KD Secondary Conformation, CGP12177 as agonist [6, 13]: No shift 10 μM; Log KD Catecholamine conformation Cimaterol as Agonist [6, 14]: No shift 10 μM
